# Reference: ChEMBL document CHEMBL5647688, “Mitogen-activated protein kinase (MEK/ERK) inhibition sensitizes cancer cells to centromere-associated protein E inhibition” (Int J Cancer, 2013)
# Tests used:
# Assay type in all cases: functional
# NCI-H358 = test: Synergistic cytotoxicity against human NCI-H358 cells expressing KRAS mutant assessed as combination index at ED 50 measured after 72 hrs in presence of MEK inhibitor GSK1120212 by Cell-titer Glo reagent assay
# NCI-H460 = test: Synergistic cytotoxicity against human NCI-H460 cells expressing KRAS mutant assessed as combination index at ED 50 measured after 72 hrs in presence of MEK inhibitor GSK1120212 by Cell-titer Glo reagent assay
# NCI-H1792 = test: Synergistic cytotoxicity against human NCI-H1792 cells expressing KRAS mutant assessed as combination index at ED 50 measured after 72 hrs in presence of MEK inhibitor GSK1120212 by Cell-titer Glo reagent assay
# [1] = Synergistic cytotoxicity against human NB-1771 cells assessed as combination index at ED 50 measured after 72 hrs in presence of concurrent treatment of […] inhibitor CI-1040 by Cell-titer Glo reagent assay
# NCI-H520 = test: Synergistic cytotoxicity against human NCI-H520 cells assessed as combination index at ED75 measured after 72 hrs in presence of MEK inhibitor GSK1120212 by Cell-titer Glo reagent assay
# SK-N-FI [2] = test: Synergistic cytotoxicity against human SK-N-FI cells assessed as combination index at ED 75 measured after 72 hrs in presence of SN-38 and temozolomide by Cell-titer Glo reagent assay
# RKO [3] = test: Synergistic cytotoxicity against human RKO cells expressing BRAF mutant assessed as combination index at ED75 measured after 72 hrs in presence of MEK inhibitor GSK1120212 by Cell-titer Glo reagent assay
# NCI-H2122 = test: Synergistic cytotoxicity against human NCI-H2122 cells expressing KRAS mutant assessed as combination index at ED 50 measured after 72 hrs in presence of MEK inhibitor GSK1120212 by Cell-titer Glo reagent assay
# HuP-T4 = test: Synergistic cytotoxicity against human HuP-T4 cells expressing KRAS mutant assessed as combination index at ED 50 measured after 72 hrs in presence of MEK inhibitor GSK1120212 by Cell-titer Glo reagent assay
# NCI-H1563 = test: Synergistic cytotoxicity against human NCI-H1563 cells assessed as combination index at ED75 measured after 72 hrs in presence of MEK inhibitor GSK1120212 by Cell-titer Glo reagent assay
# SW1990 = test: Synergistic cytotoxicity against human SW1990 cells expressing KRAS mutant assessed as combination index at ED75 measured after 72 hrs in presence of MEK inhibitor GSK1120212 by Cell-titer Glo reagent assay
# HCT-116 [4] = test: Synergistic cytotoxicity against human HCT-116 cells expressing KRAS mutant assessed as combination index at ED75 measured after 72 hrs in presence of MEK inhibitor GSK1120212 by Cell-titer Glo reagent assay
# NCI-H1299 = test: Synergistic cytotoxicity against human NCI-H1299 cells expressing NRAS mutant assessed as combination index at ED75 measured after 72 hrs in presence of MEK inhibitor GSK1120212 by Cell-titer Glo reagent assay
# SW900 = test: Synergistic cytotoxicity against human SW900 cells expressing KRAS mutant assessed as combination index at ED 50 measured after 72 hrs in presence of MEK inhibitor GSK1120212 by Cell-titer Glo reagent assay
# SW-620 = test: Synergistic cytotoxicity against human SW620 cells expressing KRAS mutant assessed as combination index at ED 50 measured after 72 hrs in presence of MEK inhibitor GSK1120212 by Cell-titer Glo reagent assay
# HCT-116 [5] = test: Synergistic cytotoxicity against human HCT-116 cells expressing KRAS mutant assessed as combination index at ED 50 measured after 72 hrs in presence of MEK inhibitor GSK1120212 by Cell-titer Glo reagent assay
# [6] = Synergistic cytotoxicity against human NB-1771 cells assessed as combination index at ED 75 measured after 72 hrs in presence of concurrent treatment of […] inhibitor CI-1040 by Cell-titer Glo reagent assay
# NB-1691 [7] = test: Synergistic cytotoxicity against human NB-1691 cells assessed as combination index at ED 75 measured after 72 hrs in presence of SN-38 by Cell-titer Glo reagent assay
# NCI-H2030 [8] = test: Synergistic cytotoxicity against human NCI-H2030 cells expressing KRAS mutant assessed as combination index at ED75 measured after 72 hrs in presence of MEK inhibitor GSK1120212 by Cell-titer Glo reagent assay
# NB-1691 [9] = test: Synergistic cytotoxicity against human NB-1691 cells assessed as combination index at ED 75 measured after 72 hrs in presence of temozolomide by Cell-titer Glo reagent assay
# MIA PaCa-2 = test: Synergistic cytotoxicity against human MIA PaCa-2 cells expressing KRAS mutant assessed as combination index at ED 50 measured after 72 hrs in presence of MEK inhibitor GSK1120212 by Cell-titer Glo reagent assay
# SK-N-FI [10] = test: Synergistic cytotoxicity against human SK-N-FI cells assessed as combination index at ED 75 measured after 72 hrs in presence of concurrent treatment of […] inhibitor CI-1040 by Cell-titer Glo reagent assay
# A549 = test: Synergistic cytotoxicity against human A549 cells expressing KRAS mutant assessed as combination index at ED75 measured after 72 hrs in presence of MEK inhibitor GSK1120212 by Cell-titer Glo reagent assay
# NCI-H2030 [11] = test: Synergistic cytotoxicity against human NCI-H2030 cells expressing KRAS mutant assessed as combination index at ED 50 measured after 72 hrs in presence of MEK inhibitor GSK1120212 by Cell-titer Glo reagent assay
# NB-1691 [12] = test: Synergistic cytotoxicity against human NB-1691 cells assessed as combination index at ED 50 measured after 72 hrs in presence of temozolomide and SN-38 by Cell-titer Glo reagent assay
# NCI-H23 = test: Synergistic cytotoxicity against human NCI-H23 cells assessed as combination index at ED 50 measured after 72 hrs in presence of MEK inhibitor GSK1120212 by Cell-titer Glo reagent assay
# HPAF-II = test: Synergistic cytotoxicity against human HPAF-II cells expressing KRAS mutant assessed as combination index at ED 50 measured after 72 hrs in presence of MEK inhibitor GSK1120212 by Cell-titer Glo reagent assay
# RKO [13] = test: Synergistic cytotoxicity against human RKO cells expressing BRAF mutant assessed as combination index at ED 50 measured after 72 hrs in presence of MEK inhibitor GSK1120212 by Cell-titer Glo reagent assay
# NCI-H2170 = test: Synergistic cytotoxicity against human NCI-H2170 cells assessed as combination index at ED 50 measured after 72 hrs in presence of MEK inhibitor GSK1120212 by Cell-titer Glo reagent assay
smiles,measurement,setting,value
CC(C)Oc1ccc(C(=O)N[C@H](CNC(=O)CN(C)C)Cc2ccc(-c3cn4cccc([C@H](C)O)c4n3)cc2)cc1Cl [GSK-923295A],CI,NCI-H358,0.416
same,CI,NCI-H460,0.25
same,CI,NCI-H1792,0.484
same,CI,[1],0.136
same,CI,NCI-H520,0.715
same,CI,SK-N-FI [2],1.058
same,CI,RKO [3],0.206
same,CI,NCI-H2122,0.85
same,CI,HuP-T4,0.452
same,CI,NCI-H1563,0.243
same,CI,SW1990,0.103
same,CI,HCT-116 [4],0.384
same,CI,NCI-H1299,0.511
same,CI,SW900,0.705
same,CI,SW-620,0.521
same,CI,HCT-116 [5],0.695
same,CI,[6],0.118
same,CI,NB-1691 [7],0.886
same,CI,NCI-H2030 [8],2.329
same,CI,NB-1691 [9],0.241
same,CI,MIA PaCa-2,0.394
same,CI,SK-N-FI [10],0.379
same,CI,A549,0.402
same,CI,NCI-H2030 [11],0.308
same,CI,NB-1691 [12],0.049
same,CI,NCI-H23,0.259
same,CI,HPAF-II,0.567
same,CI,RKO [13],0.373
same,CI,NCI-H2170,0.37
